Measured values as given in patent US20040063668A1, “Novel acyclic nucleoside phosphonate derivatives, salts thereof and process for the preparation of the same” (priority 2001, published 2004).
Like-named read-outs stand apart in the source and are kept apart here.

What was measured:
Hepatitis B Virus (HBV) = test: Inhibition of hepatitis B virus replication in HepG2.2.15 cell culture, quantitative PCR; assay type: cell-based; conditions: read-out: EC50(μM) in HBV
[1] = Determination of cytotoxicity (MTT) in HepG2.2.15 cells; conditions: human
HBV = assay type: in vivo, HBV transgenic mice (FVB strain); conditions: effect = blood does not contain HBV DNA
HepG2.2.15 = test: Determination of cytotoxicity (MTT) in HepG2.2.15 cells; conditions: read-out: CC50(μM) in HepG2.2.15; MTT, 10th day from treatment with drug
[2] = Hepatitis B virus, 240 h, HepG2.2.15 culture medium, 10 days after treatment with drug, PCR of HBV DNA
[3] = subcutaneous, 10 mg/kg/day for 9 days

Row | Structure (SMILES) | EC50 (Hepatitis B Virus (HBV); [2]) [µM] | CC50 at 10 days [1] [µM] | further results
1 | CC(C)(C)OC(=O)OCOP(=O)(COC1(Cn2cnc3cnc(N)nc32)CC1)OCOC(=O)OC(C)(C)C [Compound 69, bis{[(t-butoxycarbonyl)oxy]methyl}({1-[(2-amino-9H-purin-9-yl)methyl]cyclopropyl}oxy)methylphosphonate] | > 1 | > 1000 | –
2 | Nc1nc(NC2CC2)c2ncn(CC3(OCP(=O)(O)O)CC3)c2n1 [Compound 11, ({1-[(2-amino-6-cyclopropylamino-9H-purin-9-yl)methyl]cyclopropyl}oxy)meth-ylplhosplhonic acid] | > 20 | > 1000 | –
3 | CN1CCN(c2nc(N)nc3c2ncn3CC2(OCP(=O)(O)O)CC2)CC1 [Compound 41, [(1-{[2-amino-6-(4-methyl-1-piperazinyl)-9H-purin-9-yl]methyl}cyclopropyl)oxy]methylphosphonic Acid] | > 1 | > 1000 | –
4 | Nc1nc(Cl)c2ncn(CC3(OCP(=O)(O)O)CC3)c2n1 [Compound 3, ({1-[(2-amino-6-chloro-9H-purin-9-yl)methyl]cyclopropyl}oxy)methylphosphonic acid] | > 0.5 | > 1000 | –
5 | Cc1cn(CC2(OCP(=O)(O)O)CC2)c(=O)[nH]c1=O [Compound 31, [(1-{[5-methyl-2,4-dioxo-3,4-dihydro-1(2H)-pyrimnidinyl]methyl}cyclopropyl)oxy]methylphosphonic acid] | > 50 | > 1000 | –
6 | Nc1ncnc2c1ncn2CC1(OCP(=O)(O)O)CC1 [Compound 1, ({1-[(6-amino-9H-purin-9-yl)methyl]cyclopropyl}oxy)methylphosphonic acid] | > 1 | > 1000 | –
7 | Nc1nc(O)c2ncn(CC3(OCP(=O)(O)O)CC3)c2n1 [Compound 5, ({1-[(2-amino-6-hydroxy-9H-purin-9-yl)methyl]cyclopropyl}oxy)methyl phosphonic acid] | > 0.1 | > 1000 | –
8 | CCNc1nc(N)nc2c1ncn2CC1(OCP(=O)(O)O)CC1 [Compound 13, ({1-[(2-amino-6-ethylamino-9H-purin-9-yl)methyl]cyclopropyl}oxy)methylphosphonic Acid] | > 1 | > 1000 | –
9 | Cc1nc(N)nc2c1ncn2CC1(OCP(=O)(O)O)CC1 [Compound 25, ({1-[(2-amino-6-methyl-9H-purin-9-yl)methyl]cyclopropyl}oxy)methyl phosphonic acid] | > 5 | > 1000 | –
10 | CN(C)c1nc(N)nc2c1ncn2CC1(OCP(=O)(O)O)CC1 [Compound 15, [(1-{[2-amino-6-(dimethylamino)-9H-purin-9-yl]methyl}cyclopropyl)oxy]methyl phosphonic acid] | > 0.8 | > 1000 | –
11 | CC(C)(C)C(=O)OCOP(=O)(COC1(Cn2cnc3cnc(N)nc32)CC1)OCOC(=O)C(C)(C)C [Compound 10, 3-[({1-[(2-amino-9H-purin-9-yl)methyl]cyclopropyl}oxy)methyl]-8,8-dimethyl-3,7-dioxo-2,4,6-trioxa-3 ^5-phosphanon-1-yl pivalate] | – | > 1000 | EC50 (Hepatitis B Virus (HBV); Hepatitis B virus, HepG2.2.15, 240 h): > 0.08 µM; Result: number of mice showing pharmacological effect/number of total mice (HBV; oral, 0.4 mg/kg/day for 9 days): 5/6; Result: number of mice showing pharmacological effect/number of total mice (HBV; oral, 2 mg/kg/day for 9 days): 4/4
12 | CC1CC1(Cn1cnc2c(O)nc(N)nc21)OCP(=O)(O)O (stereo not drawn) [Compound 97, ({1-[(2-amino-6-hydroxy-9H-purin-9-yl)methyl]-2-methylcyclopropyl}oxy)methylphosphonic acid] | > 0.05 | > 1000 | Result: number of mice showing pharmacological effect/number of total mice (HBV; [3]): 4/4
13 | Nc1ncnc2c1ncn2CCOCP(=O)(O)O [PMEA, reference compound] | – | – | EC50 (Hepatitis B Virus (HBV); HepG2.2.15 culture medium, 10 days after treatment with drug, PCR of HBV DNA): 5 µM; CC50 (HepG2.2.15): > 500 µM
14 | Cc1ccc(Sc2nc(N)nc3c2ncn3CC2(OCP(=O)(O)O)CC2)cc1 [Compound 66, {[1-({2-amino-6-[(4-methylphenyl)sulfanyl]-9H-purin-9-yl}methyl)cyclopropyl]oxy}methylphosphonic acid] | > 0.1 | > 1000 | Result: number of mice showing pharmacological effect/number of total mice (HBV; [3]): 4/4
15 | Nc1nc(N2CCOCC2)c2ncn(CC3(OCP(=O)(O)O)CC3)c2n1 [Compound 37, [(1-{[2-amino-6-(4-morpholinyl)-9H-purin-9-yl]methyl}cyclopropyl)oxy]methyl phosphonic acid] | > 5 | > 1000 | –
16 | Nc1nc(N)c2ncn(CC3(OCP(=O)(O)O)CC3)c2n1 [Compound 19, ({1-[(2,6-diamino-9H-purin-9-yl)methyl]cyclopropyl}oxy)methylphosphonic acid] | > 0.3 | > 1000 | –
17 | CC(C)(C)C(=O)OCOP(=O)(COC1(Cn2cnc3c(N)ncnc32)CC1)OCOC(=O)C(C)(C)C [Compound 2, 3-[({1-[(6-amino-9H-purin-9-yl)methyl]cyclopropyl}oxy)methyl]-8,8-dimethyl-3,7-dioxo-2,46-trioxa-3 ^5-phosphanon-1-yl pivalate] | > 0.1 | > 1000 | –
18 | Cc1ccc(Sc2nc(N)nc3c2ncn3CC2(OCP(=O)(OCC(F)(F)F)OCC(F)(F)F)CC2)cc1 [Compound 62, bis(2,2,2-trifluoroethyl){[1-({2-amino-6-[(4-methylphenyl)sulfanyl]-9H-purin-9-yl}methyl)cyclopropyl]oxy}methylphosphonate] | > 0.5 | > 1000 | –
19 | Nc1ncc2ncn(CC3(OCP(=O)(O)O)CC3)c2n1 [Compound 9, ({1-[(2-amino-9H-purin-9-yl)methyl]cyclopropyl}oxy)methylphosphonic acid] | > 0.3 | > 1000 | –
20 | Nc1nc(Cl)c2ncn(CC3(OCP(=O)(OCC(F)(F)F)OCC(F)(F)F)CC3)c2n1 [Compound 46, bis(2,2,2-trifluoroethyl)({1-[(2-amino-6-chloro-9H-purin-9-yl)methyl]cyclopropyl}oxy)methylphosphonate] | > 1 | > 1000 | –
21 | Nc1nc(O)c2ncn(CC3(OCP(=O)(OCC(F)(F)F)OCC(F)(F)F)CC3)c2n1 [Compound 45, bis(2,2,2-trifluoroethyl)({1-[(2-amino-6-hydroxy-9H-purin-9-yl)methyl]cyclopropyl}oxy)methylphosphonate] | > 0.5 | > 1000 | –
22 | CCOc1nc(N)nc2c1ncn2CC1(OCP(=O)(O)O)CC1 [Compound 23, ({1-[(2-amino-6-ethoxy-9H-purin-9-yl)methyl]cyclopropyl}oxy)methyl phosphonic acid] | > 0.1 | > 1000 | Result: number of mice showing pharmacological effect/number of total mice (HBV; [3]): 4/4
23 | CC1CC1(Cn1cnc2cnc(N)nc21)OCP(=O)(O)O (stereo not drawn) [Compound 98, ({1-[(2-amino-9H-purin-9-yl)methyl]-2-methylcyclopropyl}oxy)methylphosphonic acid] | > 1 | > 1000 | Result: number of mice showing pharmacological effect/number of total mice (HBV; [3]): 4/4
24 | CC(C)Nc1nc(N)nc2c1ncn2CC1(OCP(=O)(O)O)CC1 [Compound 17, [(1-{[2-amino-6-(isopropylamino)-9H-purin-9-yl]methyl}cyclopropyl)oxy]methyl phosphonic acid] | > 0.5 | > 1000 | –
